Experimental data reported in patent publication US10604509B2, “Nrf2 regulators” (GlaxoSmithKline Intellectual Property Development Limited, priority 2015, dated 2020).
Counter-ions that a name gives are not always drawn. Like-named read-outs stand apart in the source and are kept apart here.

Test system: NQO1 specific enzyme activity in BEAS-2B cells
Assay: BEAS-2B NQO1 MTT assay
Type: cell-based
Conditions: BEAS-2B cells, 48 hours with compound, MTT readout, read-out: EC50 of NQO1 specific activity induction
Source text: NAD(P)H:quinone oxidoreductase 1 (NQO1), also called DT diaphorase, is a homodimeric FAD-containing enzyme that catalyzes obligatory NAD(P)H-dependent two-electron reductions of quinones and protects cells against the toxic and neoplastic effects of free radicals and reactive oxygen species arising from one-electron reductions. The transcription of NQO1 is finely regulated by NRF2, and thus NQO1 activity is a good marker for NRF2 activation. On day one, frozen BEAS-2B cells (ATCC) are thawed in a water bath, counted, and re-suspended at a concentration of 250,000 cells/mL. Fifty microliters of cells are plated in 384 well black clear-bottomed plates. Plates are incubated at 37° C., 5% CO2 overnight. On day two, plates are centrifuged and 50 nL of compound or controls are added to the cells. Plates are then incubated at 37° C., 5% CO2 for 48 hours. On day four, medium is aspirated from the plate and crude cell lysates are made by adding 13 uL of 1× Cell Signaling Technologies lysis buffer with 1 Complete, Mini, EDTA-free Protease Inhibitor Tablet (Roche) for each 10 mL of lysis buffer. After lysis plates are incubated for 20 minutes at room temperature. Two microliters of lysate are removed for use in Cell Titer Glo assay (Promega) and MTT cocktail is prepared (Prochaska et. al. 1998) for measurement of NQO1 activity. Fifty microliters of MTT cocktail is added to each well, plate is centrifuged, and analyzed on an Envision plate reader (Perkin Elmer) using Absorbance 570 nm label for 30 minutes. Product formation is measured kinetically and the EC50 of NQO1 specific activity induction is calculated by plotting the change in absorbance (Delta OD/min) versus the log of compound concentration followed by 3-parameter fitting.

Cc1ccc(C(c2ccc3c(nnn3C)c2C)C(C)(C)C(=O)O)cc1CN1Cc2cccc(F)c2OC(C)(C)C1 (stereo not drawn) [Example 35, 3-(1,4-Dimethyl-1H-benzo[d][1,2,3]triazol-5-yl)-3-(3-((9-fluoro-2,2-dimethyl-2,3-dihydrobenzo[f][1,4]oxaz-epin-4(5H)-yl)methyl)-4-methylphenyl)-2,2-dimethylpropanoic acid] gave an EC50 (Homo sapiens, BEAS-2B, 48 h) of 1 to 10 nM.

In the case of CCC1CCN(Cc2nccn2Cc2cc([C@H](c3ccc4c(nnn4C)c3C)C(C)(C)C(=O)O)ccc2Cl)CC1 [Example 238, (R)-3-(4-Chloro-3-((2-((4-ethylpiperidin-1-yl)methyl)-1H-imidazol-1-yl)methyl)phenyl)-3-(1,4-dimethyl-1H-benzo[d][1,2,3]triazol-5-yl)-2,2-dimethylpropanoic Acid], the EC50 (Homo sapiens, BEAS-2B, 48 h) is reported as 1 to 10 nM.

Work on CC[C@@H]1CN(Cc2cc(C(c3ccc4c(nnn4C)c3C)C(C)(C)C(=O)O)ccc2C)Cc2ccc(F)cc2O1 (stereo partly drawn) [Example 33, 3-(1,4-Dimethyl-1H-benzo[d][1,2,3]triazol-5-yl)-3-(3-(((R)-2-ethyl-8-fluoro-2,3-dihydrobenzo[f][1,4]oxaz-epin-4(5H)-yl)methyl)-4-methylphenyl)-2,2-dimethylpropanoic acid, formic acid salt] yielded an EC50 (Homo sapiens, BEAS-2B, 48 h) of 10 to 100 nM.

Cc1ccc(C(c2ccc3c(nnn3C)c2C)C(C)(C)C(=O)O)cc1Cn1ccnc1CN1CCCOCC1 (stereo not drawn) [Example 138, 3-(3-((2-((1,4-Oxazepan-4-yl)methyl)-1H-imidazol-1-yl)methyl)-4-methylphenyl)-3-(1,4-dimethyl-1H-benzo[d][1,2,3]triazol-5-yl)-2,2-dimethylpropanoic Acid] showed an EC50 (Homo sapiens, BEAS-2B, 48 h) of 1000 to 10000 nM.

For CCC1CN(Cc2cc(C(CC(=O)O)c3ccc4c(nnn4CC)c3C)ccc2C)Cc2ccccc2O1 (stereo not drawn) [Example 69, 3-(3-((2-Ethyl-2,3-dihydrobenzo[f][1,4]oxazepin-4(5H)-yl)methyl)-4-methylphenyl)-3-(1-ethyl-4-methyl-1H-benzo[d][1,2,3]triazol-5-yl)propanoic Acid, Formic Acid Salt], the EC50 (Homo sapiens, BEAS-2B, 48 h) was 10 to 100 nM.

For CC[C@@H]1CN(Cc2cc(C(CC(=O)O)c3ccc4c(nnn4C)c3C)ccc2C)Cc2c(F)cccc2O1 (stereo partly drawn) [Example 83, 3-(1,4-Dimethyl-1H-benzo[d][1,2,3]triazol-5-yl)-3-(3-(((R)-2-ethyl-6-fluoro-2,3-dihydrobenzo[f][1,4]oxazepin-4(5H)-yl)methyl)-4-methylphenyl)propanoic acid], the EC50 (Homo sapiens, BEAS-2B, 48 h) was 100 to 1000 nM.

Compound Cc1c(C(CC(=O)O)c2ccc(Cl)c(CN3CCOc4ccccc4C3)c2)ccc2c1nnn2C (stereo not drawn) [Example 99, 3-(4-Chloro-3-((2,3-dihydrobenzo[f][1,4]oxazepin-4(5H)-yl)methyl)phenyl)-3-(1,4-dimethyl-1H-benzo[d][1,2,3]triazol-5-yl)propanoic Acid, Formic Acid Salt] has an EC50 (Homo sapiens, BEAS-2B, 48 h) of 1000 to 10000 nM.

CC[C@@H]1CN(Cc2cc(C(CCc3cn(CC)nn3)C(C)(C)C(=O)O)ccc2C)Cc2ncccc2O1 (single isomer, unassigned) [Example 252] gave an EC50 of 10 to 100 nM.

In the case of Cc1ccc(C(CC(=O)O)c2ccc3c(nnn3C)c2C)cc1Cn1ccnc1CN1CCCCC1 (stereo not drawn) [Example 154, 3-(1,4-dimethyl-1H-benzo[d][1,2,3]triazol-5-yl)-3-(4-methyl-3-((2-(piperidin-1-ylmethyl)-1H-imidazol-1-yl)methyl)phenyl)propanoic Acid, Trifluoroacetic Acid Salt], the EC50 (Homo sapiens, BEAS-2B, 48 h) is reported as 100 to 1000 nM.

CC[C@@H]1CN(Cc2cc([C@H](CC(=O)O)c3ccc4c(nnn4C)c3C)ccc2C)Cc2ccncc2O1 [Example 259, (S)-3-(1,4-dimethyl-1H-benzo[d][1,2,3]triazol-5-yl)-3-(3-(((R)-2-ethyl-2,3-dihydropyrido[4,3-f][1,4]oxazepin-4(5H)-yl)methyl)-4-methylphenyl)propanoic acid] was tested, and the EC50 (Homo sapiens, BEAS-2B, 48 h) was 100 to 1000 nM.

For CCC1CCN(Cc2nccn2Cc2cc(C(CCc3cn(CC)nn3)C(C)C(=O)O)ccc2C)CC1 (single isomer, unassigned) [Example 226, 5-(1-Ethyl-1H-1,2,3-triazol-4-yl)-3-(3-((2-((4-ethylpiperidin-1-yl)methyl)-1H-imidazol-1-yl)methyl)-4-methylphenyl)-2-methylpentanoic acid, Trifluoroacetic Acid Salt], the EC50 was 10 to 100 nM.

In the case of COCC1CN(Cc2cc(C(CC(=O)O)c3ccc4c(nnn4C)c3C)ccc2C)Cc2ccccc2O1 (stereo not drawn) [Example 74, 3-(1,4-Dimethyl-1H-benzo[d][1,2,3]triazol-5-yl)-3-(3-((2-(methoxymethyl)-2,3-dihydrobenzo[f][1,4]oxazepin-4(5H)-yl)methyl)-4-methylphenyl)propanoic acid, formic acid salt], the EC50 (Homo sapiens, BEAS-2B, 48 h) is reported as 100 to 1000 nM.

For CC[C@@H]1CN(Cc2cc(C(CC(=O)O)c3ccc4c(nnn4C)c3C)ccc2C)Cc2ccncc2O1 (stereo partly drawn) [Example 90, 3-(1,4-Dimethyl-1H-benzo[d][1,2,3]triazol-5-yl)-3-(3-(((R)-2-ethyl-2,3-dihydropyrido[4,3-f][1,4]oxazepin-4(5H)-yl)methyl)-4-methylphenyl)propanoic acid], the EC50 (Homo sapiens, BEAS-2B, 48 h) was 10 to 100 nM.

In the case of CCn1cc(CCC(c2ccc(C)c(CN3Cc4cnccc4OC(C)(C)C3)c2)C(C)C(=O)O)nn1 (single isomer, unassigned) [Example 227, 3-(3-((2,2-Dimethyl-2,3-dihydropyrido[3,4-f][1,4]oxazepin-4(5H)-yl)methyl)-4-methylphenyl)-5-(1-ethyl-1H-1,2,3-triazol-4-yl)-2-methylpentanoic acid, Trifluoroacetic acid salt], the EC50 (Homo sapiens, BEAS-2B, 48 h) is reported as 100 to 1000 nM.

Work on CC[C@@H]1CN(Cc2cc(C(CC(=O)O)c3ccc(F)cc3F)ccc2C)Cc2ccccc2O1 (stereo partly drawn) [Example 117, 3-(2,4-Difluorophenyl)-3-(3-(((R)-2-ethyl-2,3-dihydrobenzo[f][1,4]oxazepin-4(5H)-yl)methyl)-4-methylphenyl)propanoic Acid, Formic Acid Salt] yielded an EC50 (Homo sapiens, BEAS-2B, 48 h) of 1000 to 10000 nM.

For Cc1ccc(C(CC(=O)O)c2ccc3c(nnn3C)c2C)cc1Cn1ccnc1CC1CCOCC1 (stereo not drawn) [Example 129, 3-(1,4-Dimethyl-1H-Benzo[d][1,2,3]triazol-5-yl)-3-(4-methyl-3-((2-((tetrahydro-2H-pyran-4-yl)methyl)-1H-imidazol-1-yl)methyl)phenyl)propanoic Acid], the EC50 (Homo sapiens, BEAS-2B, 48 h) was 100 to 1000 nM.

In the case of CCC1CCN(Cc2nccn2Cc2cc(C(c3ccc4c(nnn4C)c3C)C(C)(C)C(=O)O)ccc2Cl)CC1 (stereo not drawn) [Example 236, 3-(4-Chloro-3-((2-((4-ethylpiperidin-1-yl)methyl)-1H-imidazol-1-yl)methyl)phenyl)-3-(1,4-dimethyl-1H-benzo[d][1,2,3]triazol-5-yl)-2,2-dimethylpropanoic Acid], the EC50 (Homo sapiens, BEAS-2B, 48 h) is reported as < 1 nM.

CCC1CN(Cc2cc([C@@H](CC(=O)O)c3ccc4c(nnn4C)c3C)ccc2C)Cc2ccccc2O1 (stereo partly drawn) [Example 6, (3R)-3-(1,4-Dimethyl-1H-benzo[d][1,2,3]triazol-5-yl)-3-(3-((2-ethyl-2,3-dihydrobenzo[f][1,4]oxazepin-4(5H)-yl)methyl)-4-methylphenyl)propanoic Acid, Trifluoroacetic Acid Salt] showed an EC50 (Homo sapiens, BEAS-2B, 48 h) of 100 to 1000 nM.

CC[C@@H]1CN(Cc2cc([C@H](CC(=O)O)c3ccc4c(nnn4C)c3C)ccc2F)Cc2ccncc2O1 [Example 260, (S)-3-(1,4-dimethyl-1H-benzo[d][1,2,3]triazol-5-yl)-3-(3-(((R)-2-ethyl-2,3-dihydropyrido[4,3-f][1,4]oxazepin-4(5H)-yl)methyl)-4-fluorophenyl)propanoic acid] was tested, and the EC50 (Homo sapiens, BEAS-2B, 48 h) was 100 to 1000 nM.

Compound Cc1ccc(C(CC(=O)O)c2ccc3c(nnn3C)c2C)cc1CN1Cc2ccccc2CC(C)(C)C1 (stereo not drawn) [Example 105, Ammonium 3-(1,4-dimethyl-1H-benzo[d][1,2,3]triazol-5-yl)-3-(3-((4,4-dimethyl-4,5-dihydro-1H-benzo[c]azepin-2(3H)-yl)methyl)-4-methylphenyl)propanoate] has an EC50 (Homo sapiens, BEAS-2B, 48 h) of 10 to 100 nM.

For Cc1c(C(CC(=O)O)c2ccc(F)c(CN3Cc4ccccc4O[C@@H](C)C3)c2)ccc2c1nnn2C (stereo partly drawn) [Example 95, 3-(1,4-Dimethyl-1H-benzo[d][1,2,3]triazol-5-yl)-3-(4-fluoro-3-(((S)-2-methyl-2,3-dihydrobenzo[f][1,4]oxazepin-4(5H)-yl)methyl)phenyl)propanoic Acid, Formic Acid Salt], the EC50 (Homo sapiens, BEAS-2B, 48 h) was 100 to 1000 nM.

Work on CC[C@@H]1CN(Cc2cc(C(CCc3cn(CC)nn3)CC(=O)O)ccc2C)Cc2cnccc2O1 (stereo partly drawn) [Example 232, 5-(1-Ethyl-1H-1,2,3-triazol-4-yl)-3-(3-(((R)-2-ethyl-2,3-dihydropyrido[3,4-f][1,4]oxazepin-4(5H)-yl)methyl)-4-methylphenyl)pentanoic Acid] yielded an EC50 (Homo sapiens, BEAS-2B, 48 h) of 100 to 1000 nM.

Cc1c(C(CC(=O)O)c2ccc(Cl)c(CN3CCCC(O)C3)c2)ccc2c1nnn2C (stereo not drawn) [Example 161, 3-(4-chloro-3-((3-hydroxypiperidin-1-yl)methyl)phenyl)-3-(1,4-dimethyl-1H-benzo[d][1,2,3]triazol-5-yl)propanoic Acid] was tested, and the EC50 (Homo sapiens, BEAS-2B, 48 h) was 1000 to 10000 nM.

For CC[C@@H]1CN(Cc2cc(C(c3ccc4c(nnn4C)c3C)C(C)(C)C(=O)O)ccc2C)Cc2c(F)cccc2O1 (stereo partly drawn) [Example 31, 3-(1,4-Dimethyl-1H-benzo[d][1,2,3]triazol-5-yl)-3-(3-(((R)-2-ethyl-6-fluoro-2,3-dihydrobenzo[f][1,4]oxazepin-4(5H)-yl)methyl)-4-methylphenyl)-2,2-dimethylpropanoic Acid, Formic Acid Salt], the EC50 (Homo sapiens, BEAS-2B, 48 h) was < 1 nM.
